This is an account of results in US20240285501A1, “HAIR GROWTH AGENT” (ADJUVANT HOLDINGS CO., LTD., priority 2021, published 2024).

Assay [1] concerns VEGF gene expression in human dermal papilla cells. As to the kind of experiment: Evaluation of human dermal papilla cell VEGF gene expression (real-time PCR). Type of assay: cell-based. The settings on record: 72 hours, relative to negative control group, GAPDH internal standard, FIG. 1. As for the experimental part: The VEGF gene is expressed in dermal papilla cells, and contributes to expression of such effects as increase in hair shaft diameter and improving maximum hair shaft length and improving hair shaft elongation rate and hair shaft growth promotion at head hair, beard, eyebrows, and/or eyelashes. Human dermal papilla cells were therefore used, and evaluation was carried out with respect to increase in VEGF gene expression for the respective components.
Human dermal papilla cells (Catalog No. CA60205a; derived from person; Toyobo Co., Ltd. (Japan)) were purchased, testing and evaluation being carried out with maintenance and culture of cells being performed as described in the protocol.
As drugs for testing, drug solutions of the following respective concentrations (final concentrations) were prepared and used. • Comparative Example 1: 100 μM adenosine • Working Example 1: 0.3125 μM phytosphingosine • Working Example 2: 1.25 μM phytosphingosine • Working Example 3: Liquid mixture of 100 μM adenosine and 1.25 μM phytosphingosine
A 24-well plate was seeded with human dermal papilla cells so as to obtain 6×10^3 thereof per well. […] The GAPDH gene was used as an internal standard, the amount of VEGF gene expression being calculated relative to the negative control group. […]
300 μL of lysis buffer RL was added thereto per well, and the cells were lysed by pipetting. […] Concentration of the recovered RNA was measured using a NanoDrop Lite (Catalog No. ND-LITE; Thermo Fisher Scientific K.K.), and this was stored at −80° C. until the following cDNA creation procedure.
A FastGene scriptase II cDNA synthesis 5× Ready Mix (Catalog No. NE-LS64; Nippon Genetics Co., Ltd. (Japan)) was used to synthesize cDNA. Dilution with RNase Free Water was carried out so as to cause concentration of total RNA produced in a new tube to be […], 4 μL of FastGene scriptase II cDNA synthesis 5× Ready Mix was added to 16 μL of this sample solution, and this was agitated by vortexing. […]
(In qPCR the cycle at which signal appears reflects the starting amount.)

For assay [2], the system named is vascular endothelial growth factor (VEGF) expression in human dermal papilla cells. The settings on record: cited from earlier work.

Take `CCCCCCCCCCCCCC[C@@H](O)[C@@H](O)[C@@H](N)CO` [Working Example 1, phytosphingosine]: in assay [1], the “change in amount of expression of the VEGF gene” value (from here on “change in amount”) was “increase in dosage-dependent fashion in the amount of expression of the VEGF gene as compared with the control group”.
With `CCCCCCCCCCCCCC[C@@H](O)[C@@H](O)[C@@H](N)CO` [Working Example 2, phytosphingosine], the “change in amount” value in assay [1] is “increase in dosage-dependent fashion in the amount of expression of the VEGF gene as compared with the control group”.
For the compound `Nc1ncnc2c1ncn2[C@@H]1O[C@H](CO)[C@@H](O)[C@H]1O` [adenosine], the “expression of vascular endothelial growth factor (VEGF)” value in assay [2] is recorded as “promotes expression of vascular endothelial growth factor (VEGF)”.
In the case of `CCCCCCCCCCCCCC[C@@H](O)[C@@H](O)[C@@H](N)CO` [phytosphingosine], in assay [1], the “change in amount” value was “significantly greater than that which was produced as a result of action of adenosine”.
